Results: ChEMBL document CHEMBL1255229, “Novel antimicrobial peptides that exhibit activity against select agents and other drug resistant bacteria” (2010)
Converted amounts (≈) assume the structure as drawn. Starred links: 1 amine or outer side, 2 acyl side, 3 side chain; linkers in the order of their positions; H or OH if unused. Non-standard residues stand in square brackets, D forms with d. Residues, ends and D or L forms follow the SMILES beside them. ξ: configuration not given here. Pro(3ξ,4ξ-(CH2)4) = O=C(O)[C@H]1NCC2CCCCC21; Oic = O=C(O)[C@@H]1C[C@@H]2CCCC[C@@H]2N1; X1 = O=C([C@@H]1CN([*:1])C2CCCCC21)[*:2]; Tic = O=C(O)[C@@H]1Cc2ccccc2CN1; Orn = NCCC[C@H](N)C(=O)O

Tests used:
Format in all cases: functional
Staphylococcus aureus = assay: Antimicrobial activity against methicillin-resistant Staphylococcus aureus ATCC 33591 after 24 hrs; conditions: ATCC 33591, 24 h
Brucella suis = assay: Antimicrobial activity against Brucella suis ATCC 23445 after 24 hrs; conditions: ATCC 23445, 24 h
Burkholderia mallei = assay: Antimicrobial activity against Burkholderia mallei ATCC 23444 after 24 hrs; conditions: ATCC 23444, 24 h
Acinetobacter baumannii [1] = assay: Antimicrobial activity against Acinetobacter baumannii ATCC 19606 after 24 hrs; conditions: ATCC 19606 = CIP 70.34 = JCM 6841, 24 h
Bacillus anthracis = assay: Antimicrobial activity against Bacillus anthracis Ames after 24 hrs
Brucella abortus = assay: Antimicrobial activity against Brucella abortus 2308 after 24 hrs; conditions: Brucella abortus, 2308, 24 h
[2] = tested on: Burkholderia pseudomallei; assay: Antimicrobial activity against Burkholderia pseudomallei BURK003(1026b) after 24 hrs
Acinetobacter baumannii [3] = assay: Antimicrobial activity against Acinetobacter baumannii WRAIR after 24 hrs
Yersinia pestis = assay: Antimicrobial activity against Yersinia pestis CO92 after 24 hrs; conditions: CO92, 24 h
Brucella melitensis = assay: Antimicrobial activity against Brucella melitensis 16 M after 24 hrs
Francisella tularensis = assay: Antimicrobial activity against Francisella tularensis SCHU-S4 after 24 hrs; conditions: SCHU-S4, 24 h

Structure (SMILES)	MIC (Staphylococcus aureus)	MIC (Brucella suis)	MIC (Burkholderia mallei)	MIC (Acinetobacter baumannii [1])	MIC (Bacillus anthracis)	MIC (Brucella abortus)	MIC [2]	MIC (Acinetobacter baumannii [3])	MIC (Yersinia pestis)	MIC (Brucella melitensis)	MIC (Francisella tularensis)
CC(=O)N[C@@H](Cc1ccccc1)C(=O)N1Cc2ccccc2C[C@H]1C(=O)N1CC2CCCCC2[C@H]1C(=O)N[C@@H](CCCCN)C(=O)N1Cc2ccccc2C[C@H]1C(=O)N1CC2CCCCC2[C@H]1C(=O)N[C@@H](Cc1ccccc1)C(=O)N1Cc2ccccc2C[C@H]1C(=O)N1CC2CCCCC2[C@H]1C(=O)N[C@@H](CCCCN)C(=O)N1Cc2ccccc2C[C@H]1C(=O)N[C@@H](CCCCN)C(=O)N[C@@H](CCCCN)C(=O)N[C@@H](CCCCN)C(=O)N[C@@H](CCCCN)C(=O)N[C@@H](CCCCN)C(=O)N[C@@H](CCCCN)C(N)=O (some centres not stated) (Ac-F[Tic][Pro(3ξ,4ξ-(CH2)4)]K[Tic][Pro(3ξ,4ξ-(CH2)4)]F[Tic][Pro(3ξ,4ξ-(CH2)4)]K[Tic]KKKKKK-NH2)	25.3 µM (≈ 62.5 µg/mL)	13 µM (≈ 32.1 µg/mL)	202 µM (≈ 499 µg/mL)	6.3 µM (≈ 15.6 µg/mL)	0.75 µM (≈ 1.85 µg/mL)	101 µM (≈ 249 µg/mL)	202 µM (≈ 499 µg/mL)	6.3 µM (≈ 15.6 µg/mL)	101 µM (≈ 249 µg/mL)	202 µM (≈ 499 µg/mL)	202 µM (≈ 499 µg/mL)
CC(=O)NCC(=O)N[C@@H](Cc1ccccc1)C(=O)N1Cc2ccccc2C[C@H]1C(=O)N1[C@H](C(=O)NCC(=O)N[C@@H](CCCCN)C(=O)N2Cc3ccccc3C[C@H]2C(=O)N2[C@H](C(=O)NCC(=O)N[C@@H](Cc3ccccc3)C(=O)N3Cc4ccccc4C[C@H]3C(=O)N3[C@H](C(=O)NCC(=O)N[C@@H](CCCCN)C(=O)N4Cc5ccccc5C[C@H]4C(=O)N[C@@H](CCCCN)C(=O)N[C@@H](CCCCN)C(=O)N[C@@H](CCCCN)C(=O)N[C@@H](CCCCN)C(N)=O)C[C@@H]4CCCC[C@@H]43)C[C@@H]3CCCC[C@@H]32)C[C@@H]2CCCC[C@@H]21 (Ac-GF[Tic][Oic]GK[Tic][Oic]GF[Tic][Oic]GK[Tic]KKKK-NH2)	205 µM (≈ 500 µg/mL)	205 µM (≈ 500 µg/mL)	205 µM (≈ 500 µg/mL)	3.2 µM (≈ 7.81 µg/mL)	12.8 µM (≈ 31.2 µg/mL)	205 µM (≈ 500 µg/mL)	205 µM (≈ 500 µg/mL)	3.2 µM (≈ 7.81 µg/mL)	205 µM (≈ 500 µg/mL)	205 µM (≈ 500 µg/mL)	100 µM (≈ 244 µg/mL)
CC(C)C[C@H](NC(=O)[C@@H](N)CCCN)C(=O)N1Cc2ccccc2C[C@H]1C(=O)N1C[C@@H](C(=O)N[C@@H](CCCN)C(=O)N2Cc3ccccc3C[C@H]2C(=O)N2C[C@@H](C(=O)N[C@@H](Cc3ccccc3)C(=O)N3Cc4ccccc4C[C@H]3C(=O)N3C[C@@H](C(=O)N[C@@H](CCCN)C(=O)N4Cc5ccccc5C[C@H]4C(=O)N4C[C@@H](C(=O)N[C@@H](Cc5ccccc5)C(=O)N5Cc6ccccc6C[C@H]5C(=O)N5C[C@@H](C(=O)N[C@@H](CCCN)C(=O)N6Cc7ccccc7C[C@H]6C(=O)N6C[C@@H](C(=O)N[C@@H](CCCN)C(=O)N[C@@H](CCCN)C(=O)N[C@@H](CCCN)C(=O)N[C@@H](CCCN)C(N)=O)C7CCCCC76)C6CCCCC65)C5CCCCC54)C4CCCCC43)C3CCCCC32)C2CCCCC21 (some centres not stated) (H-[Orn]L[Tic][X1][Orn][Tic][X1]F[Tic][X1][Orn][Tic][X1]F[Tic][X1][Orn][Tic][X1][Orn][Orn][Orn][Orn]-NH2)	156 µM (≈ 499 µg/mL)	156 µM (≈ 499 µg/mL)	156 µM (≈ 499 µg/mL)	9.77 µM (≈ 31.3 µg/mL)	156 µM (≈ 499 µg/mL)	156 µM (≈ 499 µg/mL)	156 µM (≈ 499 µg/mL)	156 µM (≈ 499 µg/mL)	156 µM (≈ 499 µg/mL)	156 µM (≈ 499 µg/mL)	156 µM (≈ 499 µg/mL)
CC(C)C[C@H](NC(=O)[C@@H](N)CCCCN)C(=O)N1Cc2ccccc2C[C@H]1C(=O)N1C[C@@H](C(=O)NCC(=O)N[C@@H](CCCCN)C(=O)N2Cc3ccccc3C[C@H]2C(=O)N2C[C@@H](C(=O)N[C@@H](Cc3ccccc3)C(=O)N3Cc4ccccc4C[C@H]3C(=O)N3C[C@@H](C(=O)NCC(=O)N[C@@H](CCCCN)C(=O)N4Cc5ccccc5C[C@H]4C(=O)N4C[C@@H](C(=O)N[C@@H](Cc5ccccc5)C(=O)N5Cc6ccccc6C[C@H]5C(=O)N5C[C@@H](C(=O)NCC(=O)N[C@@H](CCCCN)C(=O)N6Cc7ccccc7C[C@H]6C(=O)N6C[C@@H](C(=O)N[C@@H](CCCCN)C(=O)N[C@@H](CCCCN)C(=O)N[C@@H](CCCCN)C(=O)N[C@@H](CCCCN)C(N)=O)C7CCCCC76)C6CCCCC65)C5CCCCC54)C4CCCCC43)C3CCCCC32)C2CCCCC21 (some centres not stated) (H-KL[Tic][X1]GK[Tic][X1]F[Tic][X1]GK[Tic][X1]F[Tic][X1]GK[Tic][X1]KKKK-NH2)	17.9 µM (≈ 62.4 µg/mL)	144 µM (≈ 502 µg/mL)	144 µM (≈ 502 µg/mL)	4.6 µM (≈ 16 µg/mL)	8.97 µM (≈ 31.2 µg/mL)	144 µM (≈ 502 µg/mL)	144 µM (≈ 502 µg/mL)	144 µM (≈ 502 µg/mL)	144 µM (≈ 502 µg/mL)	144 µM (≈ 502 µg/mL)	144 µM (≈ 502 µg/mL)
C[C@H]1c2cccc(O)c2C(=O)C2=C(O)[C@]3(O)C(=O)C(C(N)=O)=C(O)[C@@H](N(C)C)[C@@H]3[C@@H](O)[C@@H]21 [DOXYCYCLINE]	17.6 µM (≈ 7.82 µg/mL)	0.56 µM (≈ 0.249 µg/mL)	0.09 µM (≈ 0.04 µg/mL)	0.56 µM (≈ 0.249 µg/mL)	0.27 µM (≈ 0.12 µg/mL)	0.56 µM (≈ 0.249 µg/mL)	0.09 µM (≈ 0.04 µg/mL)	0.56 µM (≈ 0.249 µg/mL)	0.56 µM (≈ 0.249 µg/mL)	0.56 µM (≈ 0.249 µg/mL)	0.09 µM (≈ 0.04 µg/mL)
CC(=O)NCC(=O)N[C@@H](Cc1ccccc1)C(=O)N1Cc2ccccc2C[C@H]1C(=O)N1C[C@@H](C(=O)NCC(=O)N[C@@H](CCCCN)C(=O)N2Cc3ccccc3C[C@H]2C(=O)N2C[C@@H](C(=O)NCC(=O)N[C@@H](Cc3ccccc3)C(=O)N3Cc4ccccc4C[C@H]3C(=O)N3C[C@@H](C(=O)NCC(=O)N[C@@H](CCCCN)C(=O)N4Cc5ccccc5C[C@H]4C(=O)N[C@@H](CCCCN)C(=O)N[C@@H](CCCCN)C(=O)N[C@@H](CCCCN)C(N)=O)C4CCCCC43)C3CCCCC32)C2CCCCC21 (some centres not stated) (Ac-GF[Tic][X1]GK[Tic][X1]GF[Tic][X1]GK[Tic]KKK-NH2)	54 µM (≈ 125 µg/mL)	> 216 µM	0.02 µM (≈ 0.0463 µg/mL)	6.7 µM (≈ 15.5 µg/mL)	27 µM (≈ 62.4 µg/mL)	27 µM (≈ 62.4 µg/mL)	0.02 µM (≈ 0.0463 µg/mL)	3.4 µM (≈ 7.86 µg/mL)	27 µM (≈ 62.4 µg/mL)	54 µM (≈ 125 µg/mL)	0.02 µM (≈ 0.0463 µg/mL)
CC(C)C[C@H](NC(=O)[C@@H](N)CCCCN)C(=O)N1Cc2ccccc2C[C@H]1C(=O)N1C[C@@H](C(=O)N[C@@H](CCCCN)C(=O)N2Cc3ccccc3C[C@H]2C(=O)N2C[C@@H](C(=O)N[C@@H](Cc3ccccc3)C(=O)N3Cc4ccccc4C[C@H]3C(=O)N3C[C@@H](C(=O)N[C@@H](CCCCN)C(=O)N4Cc5ccccc5C[C@H]4C(=O)N4C[C@@H](C(=O)N[C@@H](Cc5ccccc5)C(=O)N5Cc6ccccc6C[C@H]5C(=O)N5C[C@@H](C(=O)N[C@@H](CCCCN)C(=O)N6Cc7ccccc7C[C@H]6C(=O)N6C[C@@H](C(=O)N[C@@H](CCCCN)C(=O)N[C@@H](CCCNC(=N)N)C(N)=O)C7CCCCC76)C6CCCCC65)C5CCCCC54)C4CCCCC43)C3CCCCC32)C2CCCCC21 (some centres not stated) (H-KL[Tic][X1]K[Tic][X1]F[Tic][X1]K[Tic][X1]F[Tic][X1]K[Tic][X1]KR-NH2)	162 µM (≈ 500 µg/mL)	162 µM (≈ 500 µg/mL)	162 µM (≈ 500 µg/mL)	40.5 µM (≈ 125 µg/mL)	40.5 µM (≈ 125 µg/mL)	500 µM (≈ 1540 µg/mL)	162 µM (≈ 500 µg/mL)	162 µM (≈ 500 µg/mL)	162 µM (≈ 500 µg/mL)	162 µM (≈ 500 µg/mL)	81 µM (≈ 250 µg/mL)
